Values quoted from earlier work as cited in publication PMC8448162, “Single- and Multiple-Ascending-Dose Study of the Safety, Tolerability, and Pharmacokinetics of the Polymyxin Derivative SPR206” (Antimicrobial Agents and Chemotherapy, 2021).
Positions of bridges follow the written chain, without caps; N, C: chain ends. Non-standard residues stand in square brackets, D forms with d. Residues, ends and D or L forms follow the SMILES beside them. *: point of attachment. X1 = NC[C@@H](CC(=O)*)c1cccc(Cl)c1; Dab = NCC[C@H](N)C(=O)O; Dap = NC[C@H](N)C(=O)O

Columns and labels:
[1] = human; cited from earlier work
[2] = in vivo; cited from earlier work
kidney cell = details: cited from earlier work
[3] = rat, in vivo; cited from earlier work

In the case of `CC(C)C[C@@H]1NC(=O)[C@@H](Cc2ccccc2)NC(=O)[C@H](CCN)NC(=O)[C@@H](NC(=O)[C@H](CN)NC(=O)[C@@H](NC(=O)C[C@H](CN)c2cccc(Cl)c2)[C@@H](C)O)CCNC(=O)[C@H]([C@@H](C)O)NC(=O)[C@H](CCN)NC(=O)[C@H](CCN)NC1=O` [SPR206] (X1-T[Dap][Dab][Dab][dF]L[Dab][Dab]T; lactam 3-C (inferred)), the protein binding [1] is given as less than 21%, the “accumulation after repeat dosing” value [2] is given as “no apparent accumulation” and the “kidney cell cytotoxicity compared with PMB” value (kidney cell) is given as “lower kidney cell cytotoxicity”. For the same compound, the “exposure in the kidney compared with PMB” value [3] was “lower exposure in the kidney of rats”.
